Experiments:
Assay type in all cases: in vivo
[1] = tested on: larvae of white-backed planthopper (Sogatella furcifera Horvath); experiment: Test Example 2: insecticidal activity against larvae of white-backed planthopper; details: 168 h, 400 ppm, first-instar larvae, 25° C., seven days after treatment, read-out: Mortality
Experimental: Insecticidal activity against larvae of white-backed planthopper (Sogatella furcifera Horvath).
Testing method: Five rice seedlings of the 1.5 leaf age were dipped in a test composition of 400 ppm concentration for 30 seconds. After air-drying, the seedlings were placed in a glass tube containing 1 ml of water and infested with five first-instar larvae of white-backed planthopper. The glass tube was left standing in a constant temperature cabinet at 25° C. and seven days after the treatment, dead-and-survival was observed. Mortality was calculated from the results of 3-replication test.

[2] = tested on: larvae of green rice leafhopper (Nephotettix cincticeps Uhler); experiment: Test Example 5: activity against larvae of green rice leafhopper; details: 168 h, 400 ppm, second-instar larvae, 25° C., seven days after treatment, read-out: Mortality
Experimental: Activity against larvae of green rice leafhopper (Nephotettix cincticeps Uhler).
Testing method: Five rice seedlings of the 1.5 leaf age were dipped in a test composition of 400 ppm concentration for 30 seconds. After air-drying, the seedlings were placed in a glass tube containing 1 ml of water and infested with five second-instar larvae of green rice leafhopper. The glass tube was left standing in a constant temperature cabinet at 25° C. Seven days after the treatment, dead-and-survivalwas inspected to calculate the mortality (3-replication test).

[3] = tested on: larvae of brown planthopper (Nilaparvata lugens Stahl); experiment: Test Example 1: insecticidal activity against larvae of brown planthopper; details: third-instar larvae, 25° C.
Procedure, shortened: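 Rice seedlings at 1.5-leaf stage were dipped for 30 s in a 400 ppm test composition, air-dried, and infested with third-instar N. lugens larvae. After holding at 25 °C, mortality was scored 5 or 7 days post-treatment from three replicates.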

[4] = tested on: cirrus red mite (Panonychus citri McGregor); experiment: Test Example 4: activity to citrus red mite (Rothamstead method); design: concentration or dose not given beside the values; details: two days after treatment, 25° C.; 2880 min
Experimental: Activity to cirrus red mite (Panonychus citri McGregor).
Testing method: The test was performed by Rothamstead method. A test composition was sprayed by means of a spray gun over grapefruit leaves infested with citrus red mites. After air-drying the grapefruit was left standing in a constant temperature cabinet at 25° C. Two days after the treatment, the number of survived mites was counted to calculate the mortality.

[5] = tested on: two-spotted spider mite (Tetranychus urticae Koch); experiment: Test Example 3: activity to two-spotted spider mite; details: 48 h, 1,000 ppm, 2 days after treatment
Description: Activity to two-spotted spider mite (Tetranychus urticae Koch).
Testing method: Two-spotted spider mites were set free on the pot-planted soybean in a greenhouse. On the next day, a test composition of 1,000 ppm concentration was sprayed over the soybean by means of a spray gun. Two days or five days after the treatment, dead-and-survival was inspected to calculate the mortality.

[6] = tested on: larvae of house mosquito (Culex pipiens pallens Coquillett); experiment: Test Example 6: insecticidal activity to larvae of house mosquito; details: 120 h
Experimental: Insecticidal activity to larvae of house mosquito (Culex pipiens pallens Coquillett).
Test method: In a 200-ml beaker, was placed together with a feed 100 ml of a test composition diluted with deionized water to 10 ppm concentration. The test composition was infested with 20 first-instar larvae of house mosquito and the beaker was covered with a sheet of Japanese paper. The beaker was kept in a constant temperature cabinet at 25° C. Five days after the treatment, the dead-and-survival was inspected to calculate the mortality.

| SMILES | mortality at 400 ppm [1] | mortality at 400 ppm [2] | mortality at 400 ppm ([3]; 168 h, 7 days after treatment) | Mortality [4] | mortality at 1000 ppm [5] | mortality at 400 ppm ([3]; 5 or 7 days after treatment (No. 123 not covered by footnote)) | mortality at 10 ppm [6] |
| --- | --- | --- | --- | --- | --- | --- | --- |
| CN=C1SCN(C(C)C)C(=O)N1c1ccccc1 [Compound 66, 2-Methylimino-3-phenyl-5-isopropyltetrahydro-1,3,5-thiadiazin-4-one] | 100% | 80% | 100% | 50% | 100% |  |  |
| C=CCN1CSC(=NC(C)C)N(C)C1=O [Compound 10] | 100% | 100% | 100% | 80% | 100% |  |  |
| CN=C1SCN(C(C)(C)CC(C)(C)C)C(=O)N1c1ccccc1 [Compound 88] | 100% | 80% | 100% | 100% | 100% |  |  |
| CCCCCCN=C1SCN(c2ccc(F)cc2)C(=O)N1CCC [Compound 281] |  |  |  | 100% |  |  |  |
| CN1C(=O)N(C(C)(C)C)CSC1=NC(C)(C)C [Compound 37] | 100% | 50% | 100% | 100% | 100% |  |  |
| CN=C1SCN(C(C)C)C(=O)N1c1ccc(Cl)cc1C [Compound 68] | 100% | 50% | 100% | 50% | 100% |  |  |
| CN=C1SCN(c2ccccc2)C(=O)N1C [Compound 115, 2-Methylimino-3-methyl-5-phenyl-tetrahydro-1,3,5-thiadiazin-4-one] |  |  |  | 100% |  |  |  |
| CCCN=C1SCN(C(C)(C)C)C(=O)N1C [Compound 32] | 100% | 50% | 100% | 100% | 100% |  |  |
| CCCCCCCCN1C(=O)N(c2ccccc2)CSC1=NC(C)CC (centres unmarked) [Compound 161] |  |  |  | 100% |  |  |  |
| Cc1ccccc1N=C1SCN(c2ccccc2)C(=O)N1C [Compound 124, 2-(2-Methyl)phenylimino-3-methyl-5-phenyltetrahydro-1,3,5-thiadiazin-4-one] |  |  |  | 100% |  |  |  |
| CC(C)N=C1SCN(C)C(=O)N1C(C)C [Compound 2, 2-Isopropylimino-3-isopropyl-5-methyl-tetrahydro-1,3,5-thiadiazin-4-one] | 100% | 50% | 100% | 50% | 100% |  |  |
| CCC(C)N1CSC(=NC(C)C)N(C)C1=O (centres unmarked) [Compound 29] | 100% | 80% | 100% | 100% | 100% |  |  |
| CCN1CSC(=NC(C)(C)C)N(C)C1=O [Compound 6] | 100% | 80% | 100% | 80% | 100% |  |  |
| CCCCCCN1C(=O)N(c2ccccc2)CSC1=NC(C)C [Compound 153] |  | 100% |  | 100% |  |  |  |
| CN=C1SCN(c2ccc(C)cc2)C(=O)N1C [Compound 309] |  |  |  | 100% |  |  |  |
| CN1C(=N)SCN(c2ccccc2)C1=O [Compound 123] |  |  |  | 100% |  | 100% |  |
| Cc1ccc(N2CSC(=NC(C)C)N(C)C2=O)cc1 [Compound 310] |  |  |  | 100% |  |  | 100% |
